Experimental data taken from US20240391862A1, “(1,4,5-TRISUBSTITUTED-1H-PYRAZOL-3-YL)OXY-2-ALKOXY ALKYL ACIDS AND THEIR DERIVATIVES, THEIR SALTS AND THEIR USE AS HERBICIDAL AGENTS” (Bayer AKtiengesellschaft, priority 2021, published 2024).

Assays:
[1] = system: ZEAMX; assay: Post-emergence herbicidal effect and crop plant compatibility, greenhouse pot test; assay type: in vivo, Zea mays; conditions: one-leaf stage, rated visually after about 3 weeks vs untreated controls; for plant injury at 20 g/ha: read-out: Post-emergence effect at 20 g/ha against ZEAMX in %; for plant injury at 80 g/ha: read-out: Post-emergence effect at 80 g/ha against ZEAMX in %
In short: (§1)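 Greenhouse pot plants in sandy loam receive a one-leaf-stage spray at 20 to 320 g/ha. Activity is assessed visually around 3 weeks afterwards on a 0–100% scale, where 100% means the plants have died.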

[2] = system: TRZAS; assay: as above; assay type: in vivo, Triticum aestivum; conditions: 20 g/ha, one-leaf stage, rated visually after about 3 weeks vs untreated controls; for percent crop injury (phytotoxicity) to wheat, post-emergence at 20 g/ha: Triticum aestivum, 504 h, read-out: Post-emergence effect at 20 g/ha against TRZAS in %
In short: as §1

[3] = system: ABUTH; assay: Post-emergence herbicidal effect, greenhouse pot test; assay type: in vivo, Abutilon theophrasti; conditions: visual rating about 3 weeks after treatment; for pest or weed control at 320 g/ha: Abutilon theophrasti, 504 h, read-out: Post-emergence effect against ABUTH
In short: (§2)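 Sandy loam pots, greenhouse. One-leaf stage (2–3 wk after sowing) foliar spray; WP/EC in water + 0.5% additive, 600 l/ha; 20–320 g/ha. Visual score ~3 wk, 0–100% vs untreated.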

[4] = system: ALOMY; assay: as above; assay type: in vivo, Alopecurus myosuroides; conditions: visual rating about 3 weeks after treatment; for pest or weed control at 320 g/ha: Alopecurus myosuroides, 504 h, read-out: Post-emergence effect against ALOMY
In short: as §2

[5] = system: AMARE; assay: as above; assay type: in vivo, Amaranthus retroflexus; conditions: visual rating about 3 weeks after treatment; for pest or weed control at 320 g/ha / Post-emergence effect against AMARE: 320 g/ha
In short: as §2

[6] = system: DIGSA; assay: as above; assay type: in vivo, Digitaria sanguinalis; conditions: 320 g/ha, visual rating about 3 weeks after treatment; for pest or weed control at 320 g/ha: Digitaria sanguinalis, 504 h, read-out: Post-emergence effect against DIGSA
In short: as §2

[7] = system: ECHCG; assay: as above; assay type: in vivo, Echinochloa crus-galli; conditions: for Post-emergence effect against ECHCG: 20 g/ha, visual rating about 3 weeks after treatment
In short: as §2

[8] = system: LOLRI; assay: as above; assay type: in vivo, Lolium rigidum; conditions: for pest or weed control at 320 g/ha: Lolium rigidum, 504 h, read-out: Post-emergence effect against LOLRI in %
In short: as §2

[9] = system: PHBPU; assay: as above; assay type: in vivo, Ipomoea purpurea; conditions: for pest or weed control at 320 g/ha: Ipomoea purpurea, 504 h, read-out: Post-emergence effect against PHBPU in %
In short: as §2

[10] = system: POLCO; assay: as above; assay type: in vivo, Fallopia convolvulus
In short: as §2

[11] = system: SETVI; assay: as above; assay type: in vivo, Setaria viridis; conditions: for pest or weed control at 320 g/ha: Setaria viridis, 504 h, read-out: Post-emergence effect against SETVI in %
In short: as §2

[12] = system: VERPE; assay: as above; assay type: in vivo, Veronica persica; conditions: 320 g/ha; for pest or weed control at 320 g/ha: Veronica persica, 504 h, read-out: Post-emergence effect against VERPE in %
In short: as §2

[13] = system: VIOTR; assay: as above; assay type: in vivo, Viola tricolor
In short: as §2

[14] = system: KCHSC; assay: as above; assay type: in vivo
In short: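 Visual rating of activity against untreated plants (100% = plants died, 0% = no effect), done about 3 weeks after treatment. Compounds applied at 20–320 g/ha as aqueous spray (600 l/ha, 0.5% additive) from WP or EC formulations onto one-leaf-stage plants grown in sandy loam under greenhouse conditions.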

[15] = system: AVEFA; assay: as above; assay type: in vivo, Avena fatua; conditions: visual rating about 3 weeks after treatment
In short: as §2

[16] = Amaranthus retroflexus, 504 h, read-out: Post-emergence effect against AMARE
[17] = Echinochloa crus-galli, 504 h, 320 g/ha, read-out: Post-emergence effect against ECHCG in %
[18] = Fallopia convolvulus, 504 h, 320 g/ha, read-out: Post-emergence effect against POLCO in %
[19] = Viola tricolor, 504 h, 320 g/ha, read-out: Post-emergence effect against VIOTR in %
[20] = 504 h, 320 g/ha, read-out: Post-emergence effect against KCHSC in %

| SMILES | plant injury at 20 g/ha ([1]; Zea mays, 504 h) | plant injury at 80 g/ha ([1]; Zea mays, 504 h) | percent crop injury (phytotoxicity) to wheat, post-emergence at 20 g/ha [2] | pest or weed control at 320 g/ha ([3]; 320 g/ha) | pest or weed control at 320 g/ha ([4]; 320 g/ha) | pest or weed control at 320 g/ha [14, 20] | Post-emergence effect at 20 g/ha against ZEAMX in % [1] | Post-emergence effect against ABUTH ([3]; 320 g/ha) | Post-emergence effect against ALOMY ([4]; 320 g/ha) | Post-emergence effect against AMARE [5] | Post-emergence effect against AVEFA ([15]; 320 g/ha) | Post-emergence effect against DIGSA [6] | Post-emergence effect against ECHCG in % ([7]; 320 g/ha) | Post-emergence effect against LOLRI in % ([8]; 320 g/ha) | Post-emergence effect against PHBPU in % ([9]; 320 g/ha) | Post-emergence effect against POLCO in % ([10]; 80 g/ha) | Post-emergence effect against POLCO in % ([10]; 320 g/ha) | Post-emergence effect against SETVI in % ([11]; 320 g/ha) | Post-emergence effect against VERPE in % [12] | Post-emergence effect against VIOTR in % ([13]; 320 g/ha) | further results |
| --- | --- | --- | --- | --- | --- | --- | --- | --- | --- | --- | --- | --- | --- | --- | --- | --- | --- | --- | --- | --- | --- |
| CCOC(=O)C(OC)Oc1nn(-c2cnccn2)c(-c2ccc(F)nc2)c1Cl (centres unmarked) [Example I-46] | 0% | 20% | 0% | 80% | 90% | 90% |  |  |  |  |  |  |  |  |  |  |  |  |  |  | pest or weed control at 80 g/ha ([5]; Amaranthus retroflexus, 504 h, 80 g/ha, read-out: Post-emergence effect against AMARE): 80%; pest or weed control at 320 g/ha [5, 16]: 80%; pest or weed control at 320 g/ha [6]: 80%; pest or weed control at 80 g/ha ([7]; Echinochloa crus-galli, 504 h, 80 g/ha, read-out: Post-emergence effect against ECHCG in %): 80%; pest or weed control at 320 g/ha [7, 17]: 90%; pest or weed control at 320 g/ha ([8]; 320 g/ha): 90%; pest or weed control at 320 g/ha ([9]; 320 g/ha): 90%; pest or weed control at 320 g/ha [10, 18]: 80%; pest or weed control at 320 g/ha ([11]; 320 g/ha): 90%; pest or weed control at 320 g/ha [12]: 90%; pest or weed control at 80 g/ha ([13]; Viola tricolor, 504 h, 80 g/ha, read-out: Post-emergence effect against VIOTR in %): 90%; pest or weed control at 320 g/ha [13, 19]: 90%; pest or weed control at 80 g/ha ([14]; 504 h, 80 g/ha, read-out: Post-emergence effect against KCHSC in %): 80% |
| COC(Oc1nn(-c2cnccn2)c(-c2ccc(F)nc2)c1Cl)C(=O)O (centres unmarked) [Example I-42, {[4-Chloro-5-(6-fluoropyridin-3-yl)-1-(pyrazin-2-yl)-1H-pyrazol-3-yl]oxy}(methoxy)acetic acid] | 0% | 0% | 0% | 80% | 90% | 90% |  |  |  |  |  |  |  |  |  |  |  |  |  |  | plant injury at 320 g/ha ([1]; Zea mays, 504 h, 320 g/ha, read-out: Post-emergence effect at 320 g/ha against ZEAMX in %): 20%; pest or weed control at 320 g/ha [5, 16]: 80%; pest or weed control at 320 g/ha [6]: 90%; pest or weed control at 320 g/ha [7, 17]: 90%; pest or weed control at 320 g/ha ([8]; 320 g/ha): 90%; pest or weed control at 320 g/ha ([9]; 320 g/ha): 80%; pest or weed control at 320 g/ha [10, 18]: 80%; pest or weed control at 320 g/ha ([11]; 320 g/ha): 80%; pest or weed control at 320 g/ha [12]: 80%; pest or weed control at 320 g/ha [13, 19]: 90% |
| COC(=O)CCOC(=O)C(OC)Oc1nn(-c2ncccc2F)c(-c2ccc(F)nc2)c1C1CC1 (single isomer, unassigned) [Example I-88] |  |  |  |  |  |  | 0% | 80% | 90% | 80% | 90% | 80% | 90% | 90% | 90% | 90% | 90% | 90% | 90% | 90% | Post-emergence effect at 80 g/ha against ZEAMX in % [1]: 0%; Post-emergence effect at 320 g/ha against ZEAMX in % ([1]; 320 g/ha): 0%; Post-emergence effect at 20 g/ha against TRZAS in % [2]: 20%; Post-emergence effect against ALOMY ([4]; 80 g/ha): 90%; Post-emergence effect against AVEFA ([15]; 80 g/ha): 90%; Post-emergence effect against ECHCG [7]: 80%; Post-emergence effect against ECHCG in % ([7]; 80 g/ha): 90%; Post-emergence effect against LOLRI in % ([8]; 80 g/ha): 90%; Post-emergence effect against POLCO in % ([10]; 20 g/ha): 80%; Post-emergence effect against VIOTR in % ([13]; 80 g/ha): 80%; Post-emergence effect against KCHSC in % ([14]; 80 g/ha): 80%; Post-emergence effect against KCHSC in % ([14]; 320 g/ha): 80% |
| COC(Oc1nn(-c2ncccc2F)c(-c2cncc(F)c2)c1C1CC1)C(=O)O (centres unmarked) [Example I-85] |  | 20% | 0% |  |  |  | 0% | 90% | 90% | 80% | 90% | 90% | 90% | 90% | 90% | 90% | 90% | 90% | 90% | 90% | Post-emergence effect against ABUTH ([3]; 80 g/ha): 80%; Post-emergence effect against AVEFA ([15]; 80 g/ha): 90%; Post-emergence effect against ECHCG [7]: 90%; Post-emergence effect against ECHCG in % ([7]; 80 g/ha): 90%; Post-emergence effect against LOLRI in % ([8]; 80 g/ha): 80%; Post-emergence effect against PHBPU in % ([9]; 20 g/ha): 80%; Post-emergence effect against PHBPU in % ([9]; 80 g/ha): 90%; pest or weed control at 20 g/ha ([10]; Fallopia convolvulus, 504 h, 20 g/ha, read-out: Post-emergence effect against POLCO in %): 80%; Post-emergence effect against SETVI in % ([11]; 80 g/ha): 90%; Post-emergence effect against VIOTR in % ([13]; 80 g/ha): 80%; Post-emergence effect against KCHSC in % ([14]; 80 g/ha): 90%; Post-emergence effect against KCHSC in % ([14]; 320 g/ha): 90% |
| COC(=O)C(OC)Oc1nn(-c2ncccc2F)c(-c2ccc(F)nc2)c1C1CC1 (centres unmarked) [Example I-107] |  |  | 20% |  |  | 90% | 0% | 80% | 100% | 80% | 90% | 80% | 90% | 90% | 80% | 90% | 90% | 90% | 80% | 90% | Post-emergence effect at 80 g/ha against ZEAMX in % [1]: 0%; Post-emergence effect against PHBPU in % ([9]; 80 g/ha): 80% |
